Source: patent US9796753B2, “N-substituted indenoisoquinolines and syntheses thereof” (Purdue Research Foundation, priority 2005, dated 2017)
Like-named read-outs stand apart in the source and are kept apart here.

How the values were obtained:
renal SN12C = test: COMPARE screening (NCI human cancer cell line screen), cytotoxicity GI50; type: cell-based
Summary of the method: (§1)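 Five tenfold concentrations, 100 down to 0.01 μM, are applied for 48 h; growth is measured by sulforhodamine B absorbance against control.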

ovarian OVCAR-3 = test: as above; type: cell-based
Summary of the method: as §1

prostate DU-145 = test: as above; type: cell-based
Summary of the method: as §1

melanoma UACC-62 = test: as above; type: cell-based
Summary of the method: as §1

lung HOP-62 = test: as above; type: cell-based
Summary of the method: as §1

colon HCT-116 = test: as above; type: cell-based
Summary of the method: as §1

CNS SF-539 = test: as above; type: cell-based
Summary of the method: as §1

[1] = system: all human cancer cell lines successfully tested; test: NCI screen mean graph midpoint (MGM) for growth inhibition; type: cell-based
Summary of the method: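 NCI60 panel cells exposed to compound at 100, 10, 1, 0.1 and 0.01 μM for 48 h, then sulforhodamine B staining. Percentage growth versus control plotted against log concentration; MGM is the midpoint across all lines tested.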

[2] = system: panel of twelve human tumor cell lines; test: Hollow fiber assay; type: in vivo; set-up: key to IP Score / SC score / Total score: 2 points each time viable cell mass falls ≥50% vs vehicle controls; key to Cell kill: A net cell kill at one or more implant sites is indicated with a Y; conditions: for IP Score: intraperitoneal fibers in athymic nude mice, score 2 per 50% or greater reduction in viable cell mass; for IP Score / SC score: compounds IP once daily, four doses, two dose levels; for SC score: subcutaneous fibers in athymic nude mice; for Total score: sum of IP and SC scores; for Cell kill: net cell kill at one or more implant sites
Method: Hollow Fiber Activity. […] The effects of the compounds on the reduction of viable cancer cell mass compared to those of controls were determined. Each compound was tested in the hollow fiber assay against a panel of twelve human tumor cell lines as described previously; see, Hollingshead, M.; Plowman, J.; Alley, M.; Mayo, J.; Sausville, E., The Hollow Fiber Assay. Contrib. Oncol. 1999, 54, 109-120; and Plowman, J.; Camalier, R.; Alley, M.; Sausville, E.; Schepartz, S. Contrib. Oncol. […] The compounds were solubilized in 10% DMSO in saline/Tween-80® and administered intraperitoneally once daily for a total of four doses at each of two dose levels. The two doses were selected based on single dose toxicity studies for each derivative. A score of 2 was assigned each time the compound produced a 50% or greater reduction in viable cell mass compared to vehicle-treated controls. The score for each compound was summed for the intraperitoneal fibers and the subcutaneous fibers to provide the total score for each derivative as shown in Table 3 and Table 4. For comparative purposes, the score for the clinically used anticancer drug paclitaxel is provided.

breast MDA-MB-435 = test: COMPARE screening (NCI human cancer cell line screen), cytotoxicity GI50; type: cell-based
Method: COMPARE screening. The compounds described herein were examined for antiproliferative activity against the human cancer cell lines in the National Cancer Institute screen (COMPARE screening), in which the activity of each compound was evaluated with approximately 55 different cancer cell lines of diverse tumor origins. […] Therefore, the MGM value represents an overall assessment of toxicity of the compound across numerous cell lines.

[3] = Table 1, concentration corresponding to 50% growth inhibition, read-out: cytotoxicity (GI50) ovarian OVCAR-3
[4] = Table 1, average GI50 of all cell lines tested (approximately 55), test range 10^−8 to 10^−4 molar
[5] = renal SN12C, concentration corresponding to 50% growth inhibition, read-out: cytotoxicity (GI50 in μM) renal SN12C
[6] = ovarian OVCAR-3, concentration corresponding to 50% growth inhibition, read-out: cytotoxicity (GI50 in μM) ovarian OVCAR-3
[7] = melanoma UACC-62, concentration corresponding to 50% growth inhibition, read-out: cytotoxicity (GI50 in μM) melanoma UACC-62
[8] = lung HOP-62, concentration corresponding to 50% growth inhibition, read-out: cytotoxicity (GI50 in μM) lung HOP-62
[9] = colon HCT-116, concentration corresponding to 50% growth inhibition, read-out: cytotoxicity (GI50 in μM) colon HCT-116
[10] = CNS SF-539, concentration corresponding to 50% growth inhibition, read-out: cytotoxicity (GI50 in μM) CNS SF-539
[11] = all human cancer cell lines successfully tested
[12] = breast MDA-MB-435, concentration corresponding to 50% growth inhibition, read-out: cytotoxicity (GI50 in μM) breast MDA-MB-435

| Compound | GI50 (renal SN12C) | GI50 (ovarian OVCAR-3; [3]) | GI50 (prostate DU-145) | GI50 (melanoma UACC-62) | GI50 (lung HOP-62) | GI50 (colon HCT-116) | GI50 (CNS SF-539) | MGM (mean graph midpoint for growth inhibition) [1, 4] | IP Score ([2]; Table 3) | SC score ([2]; Table 3) | Total score ([2]; Table 3) | GI50 (breast MDA-MB-435) | GI50 (ovarian OVCAR-3) | MGM (mean graph midpoint for growth inhibition) [1, 11] | IP Score ([2]; Table 4) | SC score ([2]; Table 4) | Total score ([2]; Table 4) | further results |
| --- | --- | --- | --- | --- | --- | --- | --- | --- | --- | --- | --- | --- | --- | --- | --- | --- | --- | --- |
| COc1cc2c3c(n(CCCN4CCNCC4)c(=O)c2cc1OC)-c1cc2c(cc1C3=O)OCO2.Cl.Cl [Compound 5p, 6-(3-Piperazinyl-1-propyl)-5,6-dihydro-2,3-dimethoxy-8,9-methylenedioxy-5,11-dioxo-11H-indeno[1,2-c]isoquinoline Dihydrochloride] | 0.091 µM | 2.04 µM | 0.015 µM | 1.2 µM | < 0.005 µM | 0.575 µM | < 0.005 µM | 0.382 ± 0.119 µM | 16 | 2 | 18 | 4.57 µM | – | – | – | – | – | – |
| COc1cc2c3c(n(CCCN4CCCC(O)C4)c(=O)c2cc1OC)-c1cc2c(cc1C3=O)OCO2.Cl (stereo not shown) [Compound 5s, 6-[3-(3-Hydroxypiperidinyl)-1-propyl]-5,6-dihydro-2,3-dimethoxy-8,9-methylenedioxy-5,11-dioxo-11H-indeno[1,2-c]isoquinoline Hydrochloride] | 0.126 µM | 5.75 µM | < 0.005 µM | 5.01 µM | < 0.005 µM | < 0.005 µM | < 0.005 µM | 0.243 ± 0.088 µM | 6 | 0 | 6 | 0.977 µM | – | – | – | – | – | – |
| COc1cc2c3c(n(CCCN4CCCNCC4)c(=O)c2cc1OC)-c1cc2c(cc1C3=O)OCO2.Cl.Cl [Compound 5v, 6-(3-Homopiperazinyl-1-propyl)-5,6-dihydro-2,3-dimethoxy-8,9-methylenedioxy-5,11-dioxo-11H-indeno[1,2-c]isoquinoline Dihydrochloride] | 0.145 µM | 5.01 µM | 0.081 µM | 0.457 µM | < 0.005 µM | 0.214 µM | 0.145 µM | 0.715 ± 0.335 µM | 12 | 2 | 14 | 2.63 µM | – | – | – | – | – | – |
| COc1cc2c3c(n(CCCN4CCN(CCO)CC4)c(=O)c2cc1OC)-c1cc2c(cc1C3=O)OCO2 [Compound 5w, 3-[(1-Hydroxyethyl-piperazine)-1-propyl]-5,6-dihydro-2,3-dimethoxy-8,9-methylenedioxy-5,11-dioxo-11H-indeno[1,2-c]isoquinoline] | > 100 µM | – | 0.275 µM | 1.23 µM | 9.77 µM | 2.34 µM | 1.44 µM | 7.86 ± 0.27 µM | 8 | 0 | 8 | > 100 µM | 15.1 µM | – | – | – | – | – |
| O=C(O)C(F)(F)F.O=C(O)C(F)(F)F.O=C1c2ccccc2-c2c1c1ccccc1c(=O)n2CCNCCCNCCn1c2c(c3ccccc3c1=O)C(=O)c1ccccc1-2 [Compound 14d, Bis-1,3-{(5,6-dihydro-5,11-diketo-11H-indeno[1,2-c]isoquinoline)-6-ethylamino}propane Bis(trifluoroacetate)] | – | – | – | – | – | – | – | – | – | – | – | – | – | 0.122 ± 0.064 µM | 2 | 4 | 6 | GI50 (renal SN12C; [5]): < 0.005 µM; GI50 (ovarian OVCAR-3; [6]): 0.093 µM; GI50 (prostate DU-145; prostate DU-145, concentration corresponding to 50% growth inhibition, read-out: cytotoxicity (GI50 in μM) prostate DU-145): 0.079 µM; GI50 (melanoma UACC-62; [7]): 0.182 µM; GI50 (lung HOP-62; [8]): 0.339 µM; GI50 (colon HCT-116; [9]): < 0.005 µM; GI50 (CNS SF-539; [10]): 0.155 µM; GI50 (breast MDA-MB-435; [12]): 0.024 µM |
| O=C(O)C(F)(F)F.O=C(O)C(F)(F)F.O=C1c2ccccc2-c2c1c1ccccc1c(=O)n2CCCNCCCNCCCn1c2c(c3ccccc3c1=O)C(=O)c1ccccc1-2 [Compound 14g, Bis-1,3-{(5,6-dihydro-5,11-diketo-11H-indeno[1,2-c]isoquinoline)-6-propylamino}propane Bis(trifluoroacetate)] | – | – | – | – | – | – | – | – | – | – | – | – | – | 0.394 ± 0.33 µM | 26 | 6 | 32 | GI50 (renal SN12C; [5]): < 0.01 µM; GI50 (ovarian OVCAR-3; [6]): 0.074 µM; GI50 (melanoma UACC-62; [7]): 0.042 µM; GI50 (lung HOP-62; [8]): < 0.01 µM; GI50 (colon HCT-116; [9]): < 0.01 µM; GI50 (CNS SF-539; [10]): 0.011 µM; GI50 (breast MDA-MB-435; [12]): 0.107 µM |
| O=C(O)C(F)(F)F.O=C(O)C(F)(F)F.O=C1c2ccccc2-c2c1c1ccccc1c(=O)n2CCCNCCCCNCCCn1c2c(c3ccccc3c1=O)C(=O)c1ccccc1-2 [Compound 14h, Bis-1,4-{(5,6-dihydro-5,11-diketo-11H-indeno[1,2-c]isoquinoline)-6-propylamino}butane Bis(trifluoroacetate)] | < 0.005 µM | – | 0.234 µM | 0.562 µM | 0.525 µM | < 0.005 µM | 0.251 µM | – | – | – | – | 0.676 µM | 0.135 µM | 0.225 ± 0.084 µM | 12 | 4 | 16 | – |
| O=C(O)C(F)(F)F.O=C(O)C(F)(F)F.O=C(O)C(F)(F)F.O=C1c2ccccc2-c2c1c1ccccc1c(=O)n2CCNCCNCCNCCn1c2c(c3ccccc3c1=O)C(=O)c1ccccc1-2 [Compound 14i, Bis{(5,6-dihydro-5,11-diketo-11H-indeno[1,2-c]isoquinoline)-6-ethylamino-ethyl}amine Tris(trifluoroacetate)] | 0.017 µM | – | 0.331 µM | 0.269 µM | 0.048 µM | 0.112 µM | 0.275 µM | – | – | – | – | 1 µM | 1.15 µM | 0.474 ± 0.143 µM | 10 | 6 | 16 | – |
| CC(=O)O[C@H]1C(=O)[C@@]2(C)[C@H]([C@H](OC(=O)c3ccccc3)[C@]3(O)C[C@H](OC(=O)[C@H](O)[C@@H](NC(=O)c4ccccc4)c4ccccc4)C(C)=C1C3(C)C)[C@]1(OC(C)=O)CO[C@@H]1C[C@@H]2O [Paclitaxel, paclitaxel, reference compound] | – | – | – | – | – | – | – | – | 24 | 8 | 32 | – | – | – | 24 | 8 | 32 | Cell kill ([2]; Table 3): Y; Cell kill ([2]; Table 4): Y |
